These results are taken from US8809001B2, “High throughput assays for inhibitors and activators of PAQR receptors” (University of Florida Research Foundation, Inc., priority 2007, dated 2014).

Where “and” joins values, the source holds several entries; their conditions need not be identical. Equal values may be shown once.

One experiment addresses T1, mPRα (Homo sapiens, UniProt Q86WK9).
T1 construct: Full length and truncated mPRγ and mPRα were expressed in wild type cells grown in 2% galactose from the pGREG536 vector; expressed in transfected cells; host or cells: Saccharomyces cerevisiae (BY4742 wild type; also gpa mutants), GAL1-driven plasmids (TPI1 promoter in pJK90)
T1 sequence (Q86WK9 1-346): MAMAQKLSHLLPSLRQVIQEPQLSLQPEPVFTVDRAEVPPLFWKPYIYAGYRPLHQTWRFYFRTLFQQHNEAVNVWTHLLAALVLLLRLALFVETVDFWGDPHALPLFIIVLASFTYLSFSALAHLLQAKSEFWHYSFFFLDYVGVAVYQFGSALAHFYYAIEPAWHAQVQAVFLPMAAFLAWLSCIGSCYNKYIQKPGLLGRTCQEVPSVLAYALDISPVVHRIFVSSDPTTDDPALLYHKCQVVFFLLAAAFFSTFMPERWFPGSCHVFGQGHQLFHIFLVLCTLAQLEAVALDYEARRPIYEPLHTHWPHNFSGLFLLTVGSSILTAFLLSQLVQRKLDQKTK
Nature of the experiment: cell-based. An excerpt: Plasmids and primers. Human PAQRs were cloned into various vectors by PCR from commercially/publically available cDNAs. […] The OST4 open reading frame in pJK90 was replaced with the PAQR6 and mPRα open reading frames by gap repair. Primers for all cloning reactions are listed herein. Proteins expressed in pYES260 have an N-terminal 6×-histidine tag followed by a TEV protease cleavage site. Proteins expressed in pGREG536 have an N-terminal 7×-HA tag. Proteins expressed in the pRS316 vector are untagged. The pYES260, pRS316 and pGREG536 vectors allow for galactose-inducible expression via the GAL1 promoter. […] A pRS316-based plasmid containing the STE2 gene under the control of the GAL1 promoter (Feng et al., 2000) was kindly provided by Dr. Nicholas G. Davis (Wayne State University).
Assays and growth conditions. Strains were maintained using standard protocol and grown in synthetic defined (SD) media with the appropriate amino acids to match the auxotrophies of the individual strains. […] In brief, overnights of cells grown in SD-glucose media were re-inoculated into iron-deficient LIM to induce the expression of FET3. […] All ligands were added to the growth medium upon re-inoculation into LIM. For experiments in which steroids were added as ligands, steroids were added from ethanol stocks and “untreated” controls are actually treated with an equal volume of ethanol to control for vehicle effects. […] All experiments were performed at least three times and a representative experiment is shown. EC50 values were obtained using the web-based BioDataFit software using sigmoidal curve-fitting. (web site changbioscience.com/stat/ec50.html)

In another experiment the test system is FET3. Nature of the experiment: FET3-lacZ reporter in wild type yeast carrying empty expression plasmid. Format: cell-based, Saccharomyces cerevisiae. Particulars: no human PAQR. An excerpt: Assays and growth conditions. Strains were maintained using standard protocol and grown in synthetic defined (SD) media with the appropriate amino acids to match the auxotrophies of the individual strains. Low Iron Medium (LIM) contains EDTA to limit iron-bioavailability and its composition has been previously described (Kupchak et al., 2007). […] In brief, overnights of cells grown in SD-glucose media were re-inoculated into iron-deficient LIM to induce the expression of FET3. 2% galactose was used as a carbon source to induce full expression of PAQR genes driven by the GAL1 promoter, while 0.05% galactose/1.95% raffinose was used for reduced PAQR expression. All ligands were added to the growth medium upon re-inoculation into LIM. For experiments in which steroids were added as ligands, steroids were added from ethanol stocks and “untreated” controls are actually treated with an equal volume of ethanol to control for vehicle effects. Cells were allowed to grow to mid-log phase at which time the activity of the FET3 gene was monitored using a FET3-lacZ promoter-reporter construct. lacZ activities are presented as a percentage of activity seen in untreated cells expressing the appropriate empty expression vector control. For individual experiments, each data point has been done in triplicate and the error bars represent +/−1 standard deviation. All experiments were performed at least three times and a representative experiment is shown. EC50 values were obtained using the web-based BioDataFit software using sigmoidal curve-fitting. (web site changbioscience.com/stat/ec50.html)

In another experiment the test system is Class II PAQRs. As to the kind of experiment: FET3-lacZ response of the human PAQR panel to 10 μM progesterone: Class II. In kind it is cell-based. An excerpt:
Plasmids and primers. Human PAQRs were cloned into various vectors by PCR from commercially/publically available cDNAs. PAQRs were cloned into the pYES260 (Melcher, 2000), pRS316 (Liu et al., 1992) or pGREG536 (Jansen et al., 2005) expression vectors using gap repair. The pJK90 plasmid containing a Dual Topology Reporter (DTR)-tagged OST4 gene driven by the constitutive TPI1 promoter was kindly provided by Dr. Gunnar von Heijne (Stockholm University) (Kim et al., 2003). The OST4 open reading frame in pJK90 was replaced with the PAQR6 and mPRα open reading frames by gap repair. Primers for all cloning reactions are listed herein. Proteins expressed in pYES260 have an N-terminal 6×-histidine tag followed by a TEV protease cleavage site. Proteins expressed in pGREG536 have an N-terminal 7×-HA tag. Proteins expressed in the pRS316 vector are untagged. The pYES260, pRS316 and pGREG536 vectors allow for galactose-inducible expression via the GAL1 promoter. […] The FET3-lacZ plasmid was previously described (Kupchak et al., 2007). […]
Assays and growth conditions. […] Cells were allowed to grow to mid-log phase at which time the activity of the FET3 gene was monitored using a FET3-lacZ promoter-reporter construct. lacZ activities are presented as a percentage of activity seen in untreated cells expressing the appropriate empty expression vector control. […]

For another experiment, the target named is mPRs. Particulars: determined by Thomas et al. (2008); read-out: Kd for progesterone binding to mPRs; cited from earlier work.

As to `CC(=O)[C@H]1CC[C@H]2[C@@H]3CCC4=CC(=O)CC[C@]4(C)[C@H]3CC[C@]12C` [Progesterone, progesterone], the concentration giving a half-maximal response (EC50) was 2.2 nM at mPRα (EC50, mPRα column of Table 4, ligand alone); 2.3 nM and 1 to 3 nM at mPRα (EC50, mPRα, Table 3, iron deficient LIM, 0.05% galactose). In addition, in the experiment on FET3, the “effect of ligand on FET3 in cells carrying empty expression plasmid” value was “did not respond”. Moreover, in the experiment on Class II PAQRs, the “agonist effect on all five Class II PAQRs” value is reported as “effective agonist”. Besides, on mPRs, the dissociation constant (Kd) was roughly 5 nM.

Broadly, the EC50 is the concentration at which the effect is half-maximal. By Kd is commonly meant the constant that tells how readily two partners part at equilibrium.
